Test results: patent US8765748B2, “Indazolyl, benzimidazolyl, benzotriazolyl substituted indolinone derivatives as kinase inhibitors useful in the treatment of cancer” (University Health Network, priority 2007, dated 2014)

Key:
Format in all cases: biochemical
Aurora A = molecular target: T1, Aurora A (Homo sapiens, UniProt O14965); assay: Aurora A Inhibition Assay (Z-Lyte); settings: for IC50: 20 μM ATP, 12 nM Aurora A, read-out: Aurora A IC50 Ranges; for inhibition at 10 µM: 10 μM compound, read-out: Aurora A relative inhibition percentage at a dose of 10 μM
T1 construct: purchased Invitrogen PV3612
T1 sequence (O14965 1-403): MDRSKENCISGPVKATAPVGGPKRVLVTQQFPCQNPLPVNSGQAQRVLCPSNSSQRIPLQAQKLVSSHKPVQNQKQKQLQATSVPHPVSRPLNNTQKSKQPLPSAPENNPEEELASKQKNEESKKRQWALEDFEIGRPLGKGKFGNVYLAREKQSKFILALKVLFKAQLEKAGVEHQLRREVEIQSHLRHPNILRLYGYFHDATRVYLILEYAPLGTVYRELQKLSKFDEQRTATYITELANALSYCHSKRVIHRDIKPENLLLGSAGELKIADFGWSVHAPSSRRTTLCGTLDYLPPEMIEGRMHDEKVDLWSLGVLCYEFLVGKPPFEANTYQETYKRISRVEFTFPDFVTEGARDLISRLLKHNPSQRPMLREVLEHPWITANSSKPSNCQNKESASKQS
Protocol: (§1) Aurora A inhibition was determined using the Z-Lyte assay kit from Invitrogen. The assay was performed using the recommended manufacturer's instructions with 20 μM ATP and 12 nM Aurora A (Invitrogen cat #PV3612). The % inhibition values were determined according to the manufacturer's directions and IC50 values were obtained using a non-linear 4 point logistic curve fit (XLfit4, IDBS)

PLK2 = molecular target: T2, PLK2 (Homo sapiens, UniProt Q9NYY3); assay: PLK2 Inhibition Assay (Z-Lyte); settings: for IC50: 60 μM ATP, 133 nM PLK2, read-out: PLK2 IC50 Ranges; for inhibition at 10 µM: 10 μM compound, read-out: PLK2 relative inhibition percentage at a dose of 10 μM
T2 construct: purchased Invitrogen PV4204
Protocol: as §1, with “PLK2” for “Aurora A”, “Invitrogen (cat #PV3802).” for “Invitrogen.”, “60” for “20”, “133” for “12”, “#PV4204).” for “#PV3612).”

TRKA = TRKA (Homo sapiens, UniProt P04629); assay: Kinase Selectivity Assay (CEREP, HTRF); design: purchased CEREP, France (contract assay service); settings: read-out: % Inhibition at 10 μM Concentration, TRKA
Protocol: (§2) kinase, ROCK2, RSK2, Src kinase, Syk, and TRKA. The % Inhibition was determined

human PLK4 = molecular target: T3, human PLK4 (Homo sapiens, UniProt O00444); assay: PLK4 Inhibition Assay (indirect ELISA); settings: 15 μM ATP, 4 nM GST-PLK4; read-out: PLK4 IC50 Ranges
T3 construct: amino terminal GST fusion of residues 1-391 of human PLK4; made in house; host or cells: E. coli
T3 sequence (O00444 1-391): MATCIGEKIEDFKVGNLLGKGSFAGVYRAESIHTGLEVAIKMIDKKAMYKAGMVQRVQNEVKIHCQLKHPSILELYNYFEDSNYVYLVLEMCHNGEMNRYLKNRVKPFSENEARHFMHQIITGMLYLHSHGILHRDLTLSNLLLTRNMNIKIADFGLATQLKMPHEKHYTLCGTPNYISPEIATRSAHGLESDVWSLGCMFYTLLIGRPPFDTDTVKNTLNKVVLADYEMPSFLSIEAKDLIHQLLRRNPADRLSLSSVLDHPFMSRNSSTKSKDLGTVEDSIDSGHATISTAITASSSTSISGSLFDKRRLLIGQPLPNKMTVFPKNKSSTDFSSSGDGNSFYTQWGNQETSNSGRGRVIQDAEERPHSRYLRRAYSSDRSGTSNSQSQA
Outline: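 IC50 values, from 4-point logistic fitting, reflect remaining activity measured by indirect ELISA. Enzyme was GST-PLK4 treated with lambda phosphatase and given a 15-minute pre-incubation with compound before ATP start.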

Akt1/PKBa = molecular target: T4, Akt1/PKBa (Homo sapiens, UniProt P31749); assay: Kinase Selectivity Assay (CEREP, HTRF); settings: read-out: % Inhibition at 10 μM Concentration, Akt1/PKBalpha
T4 construct: CEREP, France (ran the assays)
Protocol: as §2

PKCb2 = PKCb2 (Homo sapiens, UniProt P05771); assay: Kinase Selectivity Assay (CEREP, HTRF); settings: read-out: % Inhibition at 10 μM Concentration, PKCbeta 2
Protocol: as §2

CDK2 (cycE) = molecular target: T5, CDK2 (cycE) (Homo sapiens, UniProt P24941); assay: Kinase Selectivity Assay (CEREP, HTRF); settings: read-out: % Inhibition at 10 μM Concentration, CDK2 (cycE)
T5 construct: CEREP, France (ran the assays)
Protocol: as §2

ERK1 = molecular target: T6, ERK1 (Homo sapiens, UniProt P27361); assay: Kinase Selectivity Assay (CEREP, HTRF); settings: read-out: % Inhibition at 10 μM Concentration, ERK1
T6 construct: CEREP, France (ran the assays)
Protocol: as §2

FGFR2 kinase = molecular target: T7, FGFR2 kinase (Homo sapiens, UniProt P21802); assay: Kinase Selectivity Assay (CEREP, HTRF); settings: read-out: % Inhibition at 10 μM Concentration, FGFR2
T7 construct: CEREP, France (ran the assays)
Protocol: as §2

JNK 2 = JNK 2 (Homo sapiens, UniProt P45984); assay: Kinase Selectivity Assay (CEREP, HTRF); settings: read-out: % Inhibition at 10 μM Concentration, JNK 2
Protocol: as §2

Ret = Ret (Homo sapiens, UniProt P07949); assay: Kinase Selectivity Assay (CEREP, HTRF); settings: read-out: % Inhibition at 10 μM Concentration, Ret
Protocol: as §2

Aurora B = molecular target: T8, Aurora B (Homo sapiens, UniProt Q96GD4); assay: Aurora B Inhibition Assay (Z-Lyte); settings: 128 μM ATP, 28 nM Aurora B; read-out: Aurora B IC50 Ranges
T8 construct: purchased Invitrogen PV3970
Protocol: as §1, with “Aurora B” for “Aurora A”, “with 128” for “with 20”, “and 28” for “and 12”, “cat #PV3970).” for “cat #PV3612).”

PLK1 = molecular target: T9, PLK1 (Homo sapiens, UniProt P53350); assay: PLK1 Inhibition Assay (Z-Lyte); settings: for IC50: 25 μM ATP, 8 nM PLK1, read-out: PLK1 IC50 Ranges; for inhibition at 10 µM: 10 μM compound, read-out: PLK1 relative inhibition percentage at a dose of 10 μM
T9 construct: purchased Invitrogen PV3501
Protocol: PLK1 inhibition was determined using the Z-Lyte assay kit from Invitrogen (cat #PV3802). […] The % inhibition values were determined according to the manufacturer's directions and IC50 values were obtained using a non-linear 4 point logistic curve fit (XLfit4, IDBS)

Sequence of PKCb2 (P05771 1-673 isoform P05771-2): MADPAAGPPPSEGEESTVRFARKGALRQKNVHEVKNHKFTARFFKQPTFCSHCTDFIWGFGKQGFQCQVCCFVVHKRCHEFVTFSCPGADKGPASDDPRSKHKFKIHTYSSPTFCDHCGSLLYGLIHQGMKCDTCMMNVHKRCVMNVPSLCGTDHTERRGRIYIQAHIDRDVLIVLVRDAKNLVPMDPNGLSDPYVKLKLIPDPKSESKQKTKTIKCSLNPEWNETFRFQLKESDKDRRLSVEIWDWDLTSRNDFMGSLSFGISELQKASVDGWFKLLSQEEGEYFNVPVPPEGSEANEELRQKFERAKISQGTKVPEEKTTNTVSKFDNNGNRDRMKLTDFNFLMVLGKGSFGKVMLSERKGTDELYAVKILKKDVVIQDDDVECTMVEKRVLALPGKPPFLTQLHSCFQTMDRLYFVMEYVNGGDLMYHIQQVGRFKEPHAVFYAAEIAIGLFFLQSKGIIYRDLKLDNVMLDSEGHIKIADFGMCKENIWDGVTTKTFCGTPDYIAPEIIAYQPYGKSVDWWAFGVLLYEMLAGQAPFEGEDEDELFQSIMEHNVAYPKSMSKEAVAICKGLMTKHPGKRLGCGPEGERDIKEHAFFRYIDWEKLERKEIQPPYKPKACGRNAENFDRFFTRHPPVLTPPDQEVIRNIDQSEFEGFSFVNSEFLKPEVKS
T4 sequence (P31749 whole entry): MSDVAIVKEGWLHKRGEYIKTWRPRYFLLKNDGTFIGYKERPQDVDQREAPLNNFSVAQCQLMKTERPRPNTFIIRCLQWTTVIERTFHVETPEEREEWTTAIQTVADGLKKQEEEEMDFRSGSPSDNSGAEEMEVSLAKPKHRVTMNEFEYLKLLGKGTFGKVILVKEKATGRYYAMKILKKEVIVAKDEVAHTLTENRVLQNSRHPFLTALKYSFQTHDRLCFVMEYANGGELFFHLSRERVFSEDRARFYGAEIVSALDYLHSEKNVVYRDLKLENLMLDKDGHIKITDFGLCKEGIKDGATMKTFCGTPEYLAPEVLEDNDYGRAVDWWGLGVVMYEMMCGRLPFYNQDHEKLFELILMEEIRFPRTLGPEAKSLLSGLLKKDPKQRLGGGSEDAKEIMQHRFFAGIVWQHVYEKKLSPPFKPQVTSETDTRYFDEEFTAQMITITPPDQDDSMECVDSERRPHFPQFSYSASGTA
Sequence of JNK 2 (P45984 whole entry): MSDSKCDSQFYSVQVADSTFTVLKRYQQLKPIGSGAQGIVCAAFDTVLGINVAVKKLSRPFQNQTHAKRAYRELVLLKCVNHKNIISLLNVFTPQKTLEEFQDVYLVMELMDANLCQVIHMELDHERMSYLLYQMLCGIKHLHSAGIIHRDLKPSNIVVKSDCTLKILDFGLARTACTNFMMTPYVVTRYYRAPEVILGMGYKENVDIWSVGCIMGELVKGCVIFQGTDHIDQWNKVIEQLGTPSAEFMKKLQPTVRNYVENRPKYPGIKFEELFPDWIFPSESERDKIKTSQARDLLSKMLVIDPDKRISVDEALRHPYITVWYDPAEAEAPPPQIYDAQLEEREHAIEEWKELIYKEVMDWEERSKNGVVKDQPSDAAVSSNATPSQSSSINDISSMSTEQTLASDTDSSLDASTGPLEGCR
T2 sequence (Q9NYY3 whole entry): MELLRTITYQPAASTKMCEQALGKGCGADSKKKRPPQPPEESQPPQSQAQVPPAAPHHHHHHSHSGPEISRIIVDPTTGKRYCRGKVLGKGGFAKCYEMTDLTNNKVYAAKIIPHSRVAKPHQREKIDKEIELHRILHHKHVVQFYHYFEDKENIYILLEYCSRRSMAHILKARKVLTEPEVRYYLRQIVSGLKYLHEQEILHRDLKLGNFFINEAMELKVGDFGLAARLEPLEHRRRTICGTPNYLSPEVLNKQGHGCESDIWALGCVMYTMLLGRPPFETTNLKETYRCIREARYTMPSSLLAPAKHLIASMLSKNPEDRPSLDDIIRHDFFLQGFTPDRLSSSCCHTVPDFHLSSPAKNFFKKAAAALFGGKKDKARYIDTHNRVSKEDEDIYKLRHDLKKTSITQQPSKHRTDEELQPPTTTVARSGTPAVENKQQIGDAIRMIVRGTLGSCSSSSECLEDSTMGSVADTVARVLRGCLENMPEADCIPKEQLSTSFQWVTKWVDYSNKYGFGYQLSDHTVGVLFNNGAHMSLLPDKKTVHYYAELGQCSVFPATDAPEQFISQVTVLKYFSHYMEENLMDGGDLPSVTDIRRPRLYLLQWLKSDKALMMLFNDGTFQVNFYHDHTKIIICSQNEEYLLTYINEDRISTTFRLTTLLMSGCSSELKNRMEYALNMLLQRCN
Sequence of Ret (P07949 29-1114): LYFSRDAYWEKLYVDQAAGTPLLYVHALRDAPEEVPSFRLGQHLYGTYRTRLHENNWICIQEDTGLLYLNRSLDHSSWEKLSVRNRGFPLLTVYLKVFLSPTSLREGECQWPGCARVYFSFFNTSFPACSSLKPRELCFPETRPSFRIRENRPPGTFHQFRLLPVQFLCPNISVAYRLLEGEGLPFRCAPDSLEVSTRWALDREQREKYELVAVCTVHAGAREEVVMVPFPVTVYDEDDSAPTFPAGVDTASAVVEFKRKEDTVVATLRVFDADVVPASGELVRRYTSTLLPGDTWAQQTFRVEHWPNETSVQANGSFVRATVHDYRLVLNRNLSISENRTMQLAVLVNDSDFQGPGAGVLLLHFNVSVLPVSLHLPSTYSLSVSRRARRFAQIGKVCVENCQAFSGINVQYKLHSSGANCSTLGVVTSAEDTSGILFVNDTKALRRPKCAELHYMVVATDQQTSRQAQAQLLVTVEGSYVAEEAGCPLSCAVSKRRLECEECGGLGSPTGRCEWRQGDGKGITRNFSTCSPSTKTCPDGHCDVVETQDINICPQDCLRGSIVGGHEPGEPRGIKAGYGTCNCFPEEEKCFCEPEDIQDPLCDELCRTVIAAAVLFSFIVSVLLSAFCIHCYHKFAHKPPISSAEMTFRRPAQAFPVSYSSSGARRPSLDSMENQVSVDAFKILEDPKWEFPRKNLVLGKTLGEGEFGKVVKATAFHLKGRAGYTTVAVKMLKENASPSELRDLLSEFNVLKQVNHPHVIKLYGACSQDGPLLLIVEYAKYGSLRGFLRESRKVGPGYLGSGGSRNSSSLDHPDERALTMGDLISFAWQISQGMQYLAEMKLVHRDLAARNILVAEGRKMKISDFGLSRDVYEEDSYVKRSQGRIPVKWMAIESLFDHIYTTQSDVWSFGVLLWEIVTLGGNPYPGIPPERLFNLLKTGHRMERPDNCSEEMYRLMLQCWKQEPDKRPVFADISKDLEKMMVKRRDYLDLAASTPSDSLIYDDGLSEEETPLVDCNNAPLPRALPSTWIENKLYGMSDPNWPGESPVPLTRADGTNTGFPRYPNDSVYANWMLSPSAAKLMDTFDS
Sequence of TRKA (P04629 33-796): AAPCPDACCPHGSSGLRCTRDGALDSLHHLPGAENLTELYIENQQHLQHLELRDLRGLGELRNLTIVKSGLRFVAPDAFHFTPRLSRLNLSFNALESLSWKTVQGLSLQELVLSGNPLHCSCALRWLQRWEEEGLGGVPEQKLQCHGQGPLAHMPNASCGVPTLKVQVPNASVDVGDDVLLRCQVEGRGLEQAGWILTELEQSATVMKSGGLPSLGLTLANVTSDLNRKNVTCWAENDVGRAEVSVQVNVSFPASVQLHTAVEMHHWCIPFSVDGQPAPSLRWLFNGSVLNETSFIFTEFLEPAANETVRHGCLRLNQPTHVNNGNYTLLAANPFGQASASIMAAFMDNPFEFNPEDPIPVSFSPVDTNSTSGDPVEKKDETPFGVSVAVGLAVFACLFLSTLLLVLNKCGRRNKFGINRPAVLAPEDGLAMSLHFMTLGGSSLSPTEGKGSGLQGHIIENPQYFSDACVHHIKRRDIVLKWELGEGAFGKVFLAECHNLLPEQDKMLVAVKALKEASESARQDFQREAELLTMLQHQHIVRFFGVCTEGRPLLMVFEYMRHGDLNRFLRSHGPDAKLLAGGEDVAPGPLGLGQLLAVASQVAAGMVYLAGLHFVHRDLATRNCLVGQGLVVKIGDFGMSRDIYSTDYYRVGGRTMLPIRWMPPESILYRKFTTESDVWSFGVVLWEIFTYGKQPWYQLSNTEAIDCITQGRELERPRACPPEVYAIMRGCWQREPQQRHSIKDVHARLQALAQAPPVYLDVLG
T9 sequence (P53350 whole entry): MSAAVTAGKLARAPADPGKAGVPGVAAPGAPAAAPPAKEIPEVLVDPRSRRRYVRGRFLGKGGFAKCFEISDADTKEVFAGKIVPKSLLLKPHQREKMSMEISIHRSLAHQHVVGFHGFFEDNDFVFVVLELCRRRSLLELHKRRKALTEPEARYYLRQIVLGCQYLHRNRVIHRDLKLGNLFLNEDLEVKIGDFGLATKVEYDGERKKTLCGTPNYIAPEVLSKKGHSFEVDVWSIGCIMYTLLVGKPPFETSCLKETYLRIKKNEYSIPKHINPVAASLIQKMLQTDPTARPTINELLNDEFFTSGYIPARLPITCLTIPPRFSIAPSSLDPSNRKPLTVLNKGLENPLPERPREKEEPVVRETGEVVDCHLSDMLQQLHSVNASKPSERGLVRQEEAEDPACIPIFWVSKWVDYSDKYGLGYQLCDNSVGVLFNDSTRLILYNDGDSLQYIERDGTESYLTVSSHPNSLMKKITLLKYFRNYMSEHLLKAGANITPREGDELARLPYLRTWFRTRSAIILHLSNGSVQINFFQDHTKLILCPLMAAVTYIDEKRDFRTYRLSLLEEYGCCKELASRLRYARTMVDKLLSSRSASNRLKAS

| inhibition at 10 µM (PLK2) [%] | SMILES | IC50 (Aurora A) [µM] | IC50 (PLK2) [µM] | inhibition at 10 µM (TRKA) [%] | IC50 (human PLK4) [µM] | inhibition at 10 µM (Akt1/PKBa) [%] | inhibition at 10 µM (PKCb2) [%] | inhibition at 10 µM (CDK2 (cycE)) [%] | inhibition at 10 µM (ERK1) [%] | inhibition at 10 µM (FGFR2 kinase) [%] | inhibition at 10 µM (JNK 2) [%] | inhibition at 10 µM (Ret) [%] | IC50 (Aurora B) [µM] | IC50 (PLK1) [µM] | inhibition at 10 µM (Aurora A) [%] | inhibition at 10 µM (PLK1) [%] |
| --- | --- | --- | --- | --- | --- | --- | --- | --- | --- | --- | --- | --- | --- | --- | --- | --- |
|  | O=C1Nc2ccccc2C1=Cc1ccc2c(/C=C/c3ccccn3)n[nH]c2c1 (mixture of isomers) [Example A41, (E and Z)-3-((3-((E)-2-(pyridin-2-yl)vinyl)-1H-indazol-6-yl)methylene)indolin-2-one] | < 5 | > 50 | 99 | < 5 | -3 | 12 | 8 | 13 | 97 | 52 | 98 | < 5 | > 50 |  |  |
|  | COc1ccc2c(c1)C(=Cc1ccc3c(-c4ccc(N5CCN(C)CC5)nc4)n[nH]c3c1)C(=O)N2 (mixture of isomers) [Example A97, (E and Z)-5-methoxy-3-((3-(6-(4-methylpiperazin-1-yl)pyridin-3-yl)-1H-indazol-6-yl)methylene)indolin-2-one] |  |  | 93 | < 5 | -4 | 37 | 3 | 10 | 35 | 14 | 93 | < 5 |  |  |  |
|  | CN(C)Cc1ccc(/C=C/c2n[nH]c3cc(C=C4C(=O)Nc5ccccc54)ccc23)cc1 (mixture of isomers) [Example A106, (E and Z)-3-[(3-{(E)-2-[4-((dimethylamino)methyl)-phenyl]-ethenyl}-1H-indazol-6-yl)methylidene]-1,3-dihydro-2H-indol-2-one 2,2,2-trifluoroacetate] |  |  |  | < 5 |  |  |  |  |  |  |  | < 5 |  | > 50 | < 50 |
| < 50 | O=C1Nc2ncc(Br)cc2C1=Cc1ccc2c(/C=C/c3ccncc3)n[nH]c2c1 (mixture of isomers) [Example A109, (E and Z)-5-bromo-3-((3-((E)-2-(pyridin-4-yl)vinyl)-1H-indazol-6-yl)methyl-ene)-1H-pyrrolo[2,3-b]pyridin-2(3H)-one] | < 5 |  |  | < 5 |  |  |  |  |  |  |  | < 5 |  |  | < 50 |
|  | O=C1Nc2ccccc2/C1=C\c1ccc2[nH]nnc2c1 [Example A1, (E)-3-((1H-benzo[d][1,2,3]triazol-5-yl)methylene)indolin-2-one] |  | 5 to 50 | -13 | < 5 | -3 | 0 | 10 | 6 | 68 | 13 | 67 | < 5 | 5 to 50 | < 50 |  |
|  | O=C1Nc2ccccc2/C1=C\c1ccc2cn[nH]c2c1 [Example A5, (E)-3-((1H-indazol-6-yl)methylene)indolin-2-one] | < 5 | 5 to 50 | 60 |  | -4 | 2 | 16 | 6 | 31 | 14 | 41 | < 5 | 5 to 50 |  |  |
| < 50 | O=C1Nc2ccccc2/C1=C\c1ccc2c(/C=C/c3ccccc3Cl)n[nH]c2c1 [Example A60, (E)-3-((3-((E)-2-chlorostyryl)-1H-indazol-6-yl)methylene)indolin-2-one] | < 5 |  | 75 | < 5 | -14 | 4 | 5 | 1 | 10 | 3 | 33 | < 5 |  |  | < 50 |

| SMILES | inhibition at 10 µM (PLK2) [%] | IC50 (Aurora A) [µM] | IC50 (PLK2) [µM] | inhibition at 10 µM (TRKA) [%] | IC50 (human PLK4) [µM] | inhibition at 10 µM (Akt1/PKBa) [%] | inhibition at 10 µM (PKCb2) [%] | inhibition at 10 µM (CDK2 (cycE)) [%] | inhibition at 10 µM (ERK1) [%] | inhibition at 10 µM (FGFR2 kinase) [%] | inhibition at 10 µM (JNK 2) [%] | inhibition at 10 µM (Ret) [%] | IC50 (Aurora B) [µM] | IC50 (PLK1) [µM] | inhibition at 10 µM (Aurora A) [%] | inhibition at 10 µM (PLK1) [%] |
| --- | --- | --- | --- | --- | --- | --- | --- | --- | --- | --- | --- | --- | --- | --- | --- | --- |
| CN1CCN(c2ccc(/C=C/c3n[nH]c4cc(C=C5C(=O)Nc6ccccc65)ccc34)cn2)CC1 (mixture of isomers) [Example A108, (E and Z)-3-((3-((E)-2-(6-(4-methylpiperazin-1-yl)pyridin-3-yl)vinyl)-1H-indazol-6-yl)methylene)indolin-2-one] | < 50 | < 5 |  |  | < 5 |  |  |  |  |  |  |  | < 5 |  |  | < 50 |
